Data taken from patent US20100120867A1, “METHOD OF TREATMENT” (Novartis AG, priority 2007, published 2010).

Assay: Multicenter, double-blind, randomized, placebo-controlled clinical study in subjects with frequent heartburn
Type: in vivo, human
Procedure: A multicenter, double-blind, randomized, parallel group, placebo-controlled clinical study is carried out to investigate the safety and efficacy of lansoprazole, 15 mg (or alternatively 30 mg) once daily, in preventing frequent heartburn.
The trial population consists of subjects (male or female, at least 18 years old) with frequent heartburn, i.e. heartburn occurring a minimum of 2 or more days a week over the past month, that was untreated. A total of 576 subjects with frequent heartburn (288 per group) is randomized in order to yield 546 subjects.
The study population is divided equally between a treatment group receiving lansoprazole capsules, 15 mg (or alternatively, 30 mg) and a control group receiving placebo capsules. All statistical tests used to compare the two treatment groups are two-sided, with probability of Type I error=0.05.
Lansoprazole 15 mg (or alternatively, 30 mg) capsules or placebo are taken once daily for 14 days during the double blind treatment period.
Most measures of efficacy are derived from data recorded in the subject's IVRS diary after a daily self-assessment. Subjects are given instructions to complete the IVRS diary in the morning for the previous 24-hour period on a daily basis for all phases of the study. The diary is designed to collect information on the occurrence of daytime and nighttime heartburn episodes, maximum heartburn severity, and rescue medication consumption for the previous 24 hours. In addition, the date and time of study medication consumption are recorded.
To classify heartburn severity, subjects are instructed to use the most intense episode of the 24-hour period according to the following Intensity Scale Definitions (Table 6):
Therefore, the primary evaluation is the period between the first dose (Day 1) through the end of the double blind treatment period, i.e. Days 1-14 for 24-hour days. “No heartburn over 24 hours” on each of Days 1-14 is defined as the combined experience of daytime and nighttime heartburn. […]
This variable is analyzed as the percentage of nighttimes with the outcome of no nighttime heartburn. […]

[1] = 14-day course of therapy, randomized treatment group

Cc1c(OCC(F)(F)F)ccnc1C[S+]([O-])c1nc2ccccc2[nH]1 (stereo not drawn) [Lansoprazole]
efficacy in the relief of frequent heartburn compared to placebo (15 mg once daily, 14 days): superior in efficacy to placebo
proportion of 24-hour days substantially free of heartburn compared to placebo [1]: statistically significant increase
proportion of nighttimes substantially free of heartburn compared to placebo [1]: statistically significant increase
